Measurements published in patent US20120225889A1, “USE OF MACROCYCLIC LACTONE DERIVATIVES FOR THE TREATMENT OF INFLAMMATORY DISORDERS” (PIRAMAL LIFE SCIENCES LIMITED, priority 2010, published 2012).

Key:
IL-6 [1] = experiment: Screening in LPS stimulated THP-1 cells: IL-6; assay type: cell-based; conditions: Homo sapiens, 24 h, ELISA
Method: (§1) IL-6 (BD Biosciences, USA) production by LPS (Escherchia coli 0127:B8, Sigma, USA) in THP-1 cells (ATCC number: TIB202) was designed as in reference, Journal of Immunology, 151, 5631-5638, (1993), the disclosure of which is incorporated by reference for the teaching of the assay.
(§2) THP-1 cells were cultured in RPMI 1640 culture medium (Gibco BRL, UK) containing 100 U/mL penicillin and […] streptomycin, (100× solution, Sigma, USA) containing 10% FBS (JRH Biosciences, USA). 25,000 cells were seeded per well in 96-well plate (Nunc, USA). The cells were differentiated with PMA (Sigma, USA, prepared as 100 μg/mL stock in RPMI and was diluted to 5 ng/mL). The test compound (prepared as 20 mM stock in DMSO and diluted with DMSO to achieve the following final concentrations in the assay: 100, 10, 1, 0.1, 0.01, 0.001 and 0.0001 μM) or vehicle (0.5% DMSO) were added to the cells and the cells were incubated for 30 min at 37° C. LPS (Sigma, USA, prepared as 1 mg/mL stock in PBS) was added to achieve a final concentration of 1 μg/mL. Plates were incubated at 37° C. for 24 h at 5% CO2. Supernatants were harvested, and assayed for TNF-α and IL-6 by ELISA as described by the manufacturer (BD Biosciences, USA). Percent inhibition of cytokine release compared to the control was calculated. The IC50 values were calculated by a nonlinear regression method.

TNF-α [2] = experiment: Screening in LPS stimulated THP-1 cells: TNF-α; assay type: cell-based; conditions: Homo sapiens, 24 h, ELISA
Method: as §1, §2

IL-6 [3] = experiment: Cytokine release assay in hPBMCs: IL-6; assay type: cell-based; conditions: Homo sapiens; Table 3: PHA-PMA induced hPBMC's, 48 h; read-out: IL-6 IC50
Method: (§3) hPBMCs were obtained from healthy donors by centrifugation of heparinized venous blood over Ficoll/Hypaque solution (Histopaque-1077, Sigma, USA). Isolated hPBMCs were suspended in RPMI 1640 culture medium supplemented with 10% FBS and seeded at a density of 50,000 cells/well in a 96-well plate (Nunc, USA). The cells were incubated at 37° C., 5% CO2 for a period of 24 h. These cells were used for the lymphocyte proliferation as well as cytokine release assay.
(§4) The plated cells were treated with different concentrations of the test compound (prepared as mM stock in DMSO and diluted with DMSO to achieve the following final concentrations in the assay: 100, 10, 1, 0.1, 0.01, 0.001, 0.0001, 0.00001 and 0.000001 μM) and incubated for 30 min. The cells were then stimulated with PHA (prepared as 1 mg/mL stock in RPMI 1640 culture medium and used at a final concentration of 5 μg/mL). FK506 was used as a standard. The plates were incubated at 37° C., 5% CO2 for 48 h. The cytokines in the supernatant collected were detected using ELISA kit (BD biosciences, USA). The cytokines evaluated in the assay were TNF-α, IL-2, IL-6, and IFN-γ.

IFN-γ = experiment: Cytokine release assay in hPBMCs: IFN-γ; assay type: cell-based; conditions: Homo sapiens; Table 3: PHA-PMA induced hPBMC's, 48 h; read-out: IFN-γ IC50
Method: as §3, §4

TNF-α [4] = experiment: Cytokine release assay in hPBMCs: TNF-α; assay type: cell-based; conditions: Homo sapiens; Table 3: PHA-PMA induced hPBMC's, 48 h; read-out: TNF-α IC50
Method: as §3, §4

IL-2 = experiment: Cytokine release assay in hPBMCs: IL-2; assay type: cell-based; conditions: Homo sapiens; Table 3: PHA-PMA induced hPBMC's, 48 h; read-out: IL-2 IC50
Method: as §3, §4

IL-6 [5] = experiment: Human monocyte assay (LPS-induced): IL-6; assay type: cell-based; conditions: LPS stimulated human monocytes, 5 h
From the text: The assay was designed as in reference, Physiological Research, 52, 593-598, (2003), the disclosure of which is incorporated by reference for the teaching of the assay.
The objective of the assay is to determine whether compounds of the present invention—mediated inhibition of LPS-induced cytokines from monocytic THP-1 cell line translates to physiologically relevant human cells. Accordingly, the effect of compounds of the present invention on LPS—induced cytokine production from freshly isolated human monocytes was ascertained.
Peripheral blood was collected from healthy donors into potassium EDTA vacutainer tubes (BD Biosciences, USA). hPBMCs were isolated using density gradient separation (Histopaque-1077; Sigma, USA) and suspended in assay medium which is RPMI culture medium (Sigma, USA) containing 10% heat inactivated FBS (JRH Biosciences, Australia), 100 U/mL penicillin (Sigma, USA) and […] streptomycin (Sigma, USA). Monocytes in the hPBMCs were counted using a Coulter Counter following which the cells were resuspended at 2×10^5 monocytes/mL of assay medium. A cell suspension containing 2×10^4 monocytes was aliquoted per well of a 96-well plate (Nunc, USA). Subsequently, the hPBMCs were incubated for 4-5 h at 37° C., 5% CO2. During the incubation, the monocytes adhered to the bottom of 96-well plate. Following the incubation, the non-adherent lymphocytes were washed and assay medium was added to adherent monocytes. After 48 h of incubation at 37° C., 5% CO2, monocytes were pre-treated with various concentrations of test compound (prepared as 20 mM stock in DMSO; 1 μL of […] concentrated solution of test compound was dissolved in 200 μL cell suspension to achieve a final concentration of 0.03, 0.1, 0.3, 1, 3, 10, 30 and 100 μM) or vehicle (0.5% DMSO) or 10 μM dexamethasone (standard IL-6 and TNF-α inhibitor, Sigma, USA) for 30 min at 37° C., 5% CO2 and stimulated with 1 μg/mL LPS (Escherchia coli 0111:B4, Sigma, USA). The cells were then incubated for 5 h at 37° C., 5% CO2 following which supernatants were collected, stored at −70° C. and were assayed later for IL-6, and TNF-α by ELISA (OptiEIA ELISA sets, BD Biosciences, USA). The IC50 values were calculated by a nonlinear regression method using Graph Pad software (Prism 3.03).

[6] = test system: DBA/1J mice with collagen induced arthritis; experiment: Collagen-induced arthritis in mice; assay type: in vivo; conditions: compound of example 7 5 mg/kg, s.c., n=10; Enbrel 3 mg/kg, s.c., n=6; vehicle control 15.14+1.0
Method: The experiment was designed as in reference, J. Experimental Medicine, 162, 637-646 (1985), the disclosure of which is incorporated by reference for the teaching of the experiment.
Male DBA/1J mice with body weight range of 18-22 g, aged 8-10 weeks were immunized with an emulsion equivalent to 200 μg of type II collagen (Elastin products, USA) in Freund's Complete Adjuvant (Sigma, USA), injected intradermally at the base of the tail. The animals were boosted with 200 μg of freshly prepared typeII collagen emulsion emulsified in Freund's Complete Adjuant (Sigma, USA) on day 21. A group of naïve mice was also maintained alongside. Naïve animals are the animals which are neither immunized for induction of arthritis nor do they receive any treatment. This group is maintained to take care of the normal changes in the paw thickness with age.
From day 23, mice were examined daily once for the signs of rheumatoid arthritis, using the articular index and paw thickness as parameters. Articular index scoring was performed employing the following criteria:
• 0: No redness or swelling • 1: Redness, but no swelling • 2: Redness and swelling of the paw • 3: Redness and severe swelling of the paw Hind limbs: Scale 0-4 • 0: No redness or swelling • 1: Redness and mild swelling of paw • 2: Redness and moderate swelling of paw and/or swelling of at least one of the digits • 3: Redness and moderate/severe swelling of paw, swelling of ankle joint and/or swelling of one or more digits • 4: Redness and severe swelling of paw, digits and ankle joint, with joint stiffness Mice with a minimum hind paw score of 2, of even one paw, were inducted into the study. Mice were randomized into the various study groups, each group having at least eight animals, and were administered the vehicle (0.5% CMC, 10 mL/kg p.o. and s.c. twice daily), the test compound (5 mg/kg, p.o. and s.c., twice daily) and standard compound Enbrel (Wyeth Limited, UK), 3 mg/kg, s.c., once daily. The test compound was administered as a suspension in CMC. The requisite quantity of the compound was accurately weighed and was hand-pulverized using pestle-mortar. After mixing with minimum quantity of Tween 80 necessary to wet the compound, requisite quantity of 0.5% CMC solution was added and the compound was ground with CMC till the uniform suspension was obtained. Standard compound ‘Enbrel’ was used as an aqueous solution. The dosing of the compounds was done for 12 continuous days.
The following parameters were observed and recorded daily, • 1. Body weight • 2. Articular index • 3. Paw thickness of hind limbs only, in mm using a tension free calipers • 4. Any significant observation regarding the condition of the animals.
On 13th day morning, 1 h after the compound treatment, the animals were sacrificed, blood withdrawn, and plasma collected for drug level analyses. Also, the hind limbs of all the animals were preserved for histopathological evaluations.

## C/C=C/C(O)C(C)/C=C/C(=O)NC(C)C(O)C(C)C1OC(=O)/C(OC)=C/C(C)=C/C(C)C(O)C(CC)C(O)C(C)C/C(C)=C/C=C/C1OC (stereo not drawn) [Compound of example 16, (2E,6E)-N-(4-((4E,6E,14E,16Z)-11-Ethyl-10,12-dihydroxy-3,17-dimethoxy-7,9,13,15-tetramethyl-18-oxooxacyclooctadeca-4,6,14,16-tetraen-2-yl)-3-hydroxypentan-2-yl)-5-hydroxy-4-methylocta-2,6-dienamide]
IL-6 [1]
  IC50: 30 nM
TNF-α [2]
  IC50: > 100000 nM

## C/C=C/C(O)C(C)/C=C/C(=NOCC(=O)O)C(C)C(O)C(C)C1OC(=O)/C(OC)=C/C(C)=C/C(C)C(O)C(CC)C(O)C(C)C/C(C)=C/C=C/C1OC (stereo in doubt) [Compound of example 10, ((Z)-((6E,10E)-2-((4E,6E,14E,16Z)-11-Ethyl-10,12-dihydroxy-3,17-dimethoxy-7,9,13,15-tetramethyl-18-oxooxacyclooctadeca-4,6,14,16-tetraen-2-yl)-3,9-dihydroxy-4,8-dimethyldodeca-6,10-dien-5-ylidene)aminooxy)acetic acid]
IL-6 [1]
  IC50: 2300 nM
IL-6 [3]
  IC50: 20 nM
IFN-γ
  IC50: 2000 nM
TNF-α [2]
  IC50: > 30000 nM
TNF-α [4]
  IC50: 200 nM
IL-2
  IC50: 200 nM

## C/C=C/C(O)C(C)/C=C/C(=NOCC(=O)N1CCCCC1)C(C)C(O)C(C)C1OC(=O)/C(OC)=C/C(C)=C/C(C)C(O)C(CC)C(O)C(C)C/C(C)=C/C=C/C1OC (stereo in doubt) [Compound of example 13, (3Z,5E,13E,15E)-18-((5Z,6E,10E)-3,9-Dihydroxy-4,8-dimethyl-5-(2-oxo-2-(piperidin-1-yl)ethoxyimino)dodeca-6,10-dien-2-yl)-9-ethyl-8,10-dihydroxy-3,17-dimethoxy-5,7,11,13-tetramethyloxacyclooctadeca-3,5,13,15-tetraen-2-one]
IL-6 [1]
  IC50: 200 nM
IL-6 [3]
  IC50: 500 nM
IFN-γ
  IC50: 10000 nM
TNF-α [2]
  IC50: > 30000 nM
TNF-α [4]
  IC50: 20 nM
IL-6 [5]
  IC50: 1400 nM
IL-2
  IC50: 200 nM

## C/C=C/C(O)C(C)/C=C/C(=NOCC(=O)N1CCN(C)CC1)C(C)C(O)C(C)C1OC(=O)/C(OC)=C/C(C)=C/C(C)C(O)C(CC)C(O)C(C)C/C(C)=C/C=C/C1OC (stereo in doubt) [Compound of example 11, (3Z,5E,13E,15E)-18-((5Z,6E,10E)-3,9-Dihydroxy-4,8-dimethyl-5-(2-(4-methylpiperazin-1-yl)-2-oxoethoxyimino)dodeca-6,10-dien-2-yl)-9-ethyl-8,10-dihydroxy-3,17-dimethoxy-5,7,11,13-tetramethyloxacyclooctadeca-3,5,13,15-tetraen-2-one]
IL-6 [1]
  IC50: 300 nM
IL-6 [3]
  IC50: 10 nM
IFN-γ
  IC50: 5000 nM
TNF-α [2]
  IC50: > 30000 nM
TNF-α [4]
  IC50: 50 nM
IL-6 [5]
  IC50: > 10000 nM
IL-2
  IC50: 50 nM

## Enbrel
[6]
  Histological score of the section of paws: 5.8+0.95

## C/C=C/C(O)C(C)/C=C/C(=NOCC(=O)N1CCC(N2CCCCC2)CC1)C(C)C(O)C(C)C1OC(=O)/C(OC)=C/C(C)=C/C(C)C(O)C(CC)C(O)C(C)C/C(C)=C/C=C/C1OC (stereo in doubt) [Compound of example 14, (3Z,5E,13E,15E)-18-((5Z,6E,10E)-5-(2-(1,4′-Bipiperidin-1′-yl)-2-oxoethoxyimino)-3,9-dihydroxy-4,8-dimethyldodeca-6,10-dien-2-yl)-9-ethyl-8,10-dihydroxy-3,17-dimethoxy-5,7,11,13-tetramethyloxacyclooctadeca-3,5,13,15-tetraen-2-one]
IL-6 [1]
  IC50: 130 nM
IL-6 [3]
  IC50: 10 nM
IFN-γ
  IC50: 20 nM
TNF-α [2]
  IC50: 18000 nM
TNF-α [4]
  IC50: 20 nM
IL-6 [5]
  IC50: 150 nM
IL-2
  IC50: 5 nM
